Experimental data from the supplement of paper PMC10307832.

What was measured:
Test in all cases: relative viability (nuclei count vs DMSO), 5 days (fraction); higher = more cells survive
Shikonin + Trametinib = compound: CC(C)=CC[C@@H](O)C1=CC(=O)c2c(O)ccc(O)c2C1=O [Shikonin] + CC(=O)Nc1cccc(-n2c(=O)n(C3CC3)c(=O)c3c(Nc4ccc(I)cc4F)n(C)c(=O)c(C)c32)c1 [Trametinib] (partner 0.02 µM)
Summary of the method: (§1)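 Nuclei were stained with Hoechst during a one-step fixation (final 0.05% Triton X-100, 1% formaldehyde, 1 ug/ml Hoechst) carried out 5 days after dosing, then counted on 4× images. The cells, lung cancer lines in 1536-well plates, had been dosed by pin tool the day after seeding with one drug alone or a fixed anchor-drug dose plus five library-drug doses (not always all listed) in √10 steps. Relative viability is the nuclei count in treated wells divided by that in vehicle wells, and each value is the median of duplicate plates.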

[1] = compound: CC(C)N(CCCNC(=O)Nc1ccc(C(C)(C)C)cc1)C[C@H]1O[C@@H](n2ccc3c(N)ncnc32)[C@H](O)[C@@H]1O + CC(C)C[C@H](NC(=O)[C@H](Cc1ccccc1)NC(=O)c1cnccn1)B(O)O [Bortezomib] (partner 0.002 µM)
Summary of the method: as §1

Shikonin + Crizotinib = compound: CC(C)=CC[C@@H](O)C1=CC(=O)c2c(O)ccc(O)c2C1=O [Shikonin] + C[C@@H](Oc1cc(-c2cnn(C3CCNCC3)c2)cnc1N)c1c(Cl)ccc(F)c1Cl [Crizotinib] (partner 1 µM)
Summary of the method: as §1

[2] = compound: CC(C)N(CCCNC(=O)Nc1ccc(C(C)(C)C)cc1)C[C@H]1O[C@@H](n2ccc3c(N)ncnc32)[C@H](O)[C@@H]1O + Nc1nc2[nH]cc(CCc3ccc(C(=O)N[C@@H](CCC(=O)O)C(=O)O)cc3)c2c(=O)[nH]1 [Pemetrexed] (partner 0.2 µM)
Summary of the method: as §1

Cell Line: UMC-11
- relative viability (Shikonin + Trametinib; first compound 0.01 µM): 0.573
- relative viability (Shikonin + Trametinib; first compound 0.1 µM): 0.802
- relative viability (Shikonin + Trametinib; first compound 0.3162 µM): 0.656
- relative viability (Shikonin + Trametinib; first compound 1 µM): 0.793
- relative viability ([1]; first compound 0.08 µM): 0.654
- relative viability ([1]; first compound 0.253 µM): 0.531
- relative viability ([1]; first compound 0.8 µM): 0.673
- relative viability ([1]; first compound 2.53 µM): 0.79
- relative viability ([1]; first compound 8 µM): 0.617
- relative viability (Shikonin + Crizotinib; first compound 0.01 µM): 0.745
- relative viability (Shikonin + Crizotinib; first compound 0.1 µM): 0.559
- relative viability (Shikonin + Crizotinib; first compound 0.3162 µM): 0.658
- relative viability (Shikonin + Crizotinib; first compound 1 µM): 0.633
- relative viability ([2]; first compound 0.08 µM): 0.803
- relative viability ([2]; first compound 0.253 µM): 0.748
- relative viability ([2]; first compound 0.8 µM): 0.791
- relative viability ([2]; first compound 2.53 µM): 0.79
- relative viability ([2]; first compound 8 µM): 0.806
